Tests used:
[1] = test system: C57Bl6 mouse; assay: Plasma cholesterol assays and lipoprotein distribution in the C57Bl6 mouse (compounds 4 and 7); assay type: in vivo; conditions: for lipid profile: C57Bl6 mice treated for 14 days; for plasma HDL-cholesterol levels / plasma total cholesterol levels / plasma HDL-cholesterol level (distribution of cholesterol in the plasma lipoprotein fractions): C57Bl6 mouse, 14 days; for plasma HDL-cholesterol levels / plasma total cholesterol levels: 50 mpk oral; for plasma HDL-cholesterol level (distribution of cholesterol in the plasma lipoprotein fractions): 50 mpk
Experimental: The effect of the compounds according to the invention was evaluated in vivo in the C57Bl6 mouse after 14 days of treatment by the oral route. At the end of the treatment, the distribution of cholesterol in the various plasma lipoprotein fractions was determined. This was compared with the profile obtained in the control animals (not treated with the compounds according to the invention). The effect of the compounds according to the invention was evaluated in the C57Bl6 mouse by measuring the plasma levels of total cholesterol and of HDL-cholesterol after 14 days of treatment by the oral route. These levels were compared with those obtained with control animals (not treated with the compounds according to the invention). The measured difference provides evidence of the antilipemic effect of the compounds according to the invention.
Female C57Bl6 mice were kept under a cycle of light and darkness of 12/12 hours at a constant temperature of 20±3° C. After acclimation for one week, the mice were weighed and put into groups of 6 animals selected so that the distribution of their body weight, of their plasma lipid levels and of total cholesterol determined for the first time before the experiment, is uniform. The test compounds were suspended in carboxymethylcellulose (Sigma C4888) and administered by intragastric force feeding, at a rate of once per day for 14 days at the chosen dose. The animals had free access to water and to food (standard diet). At the end of the experiment, the animals were anesthetized after fasting for 4 hours, a blood sample was taken using anticoagulant (EDTA), then the mice were weighed and euthanased. The plasma was separated by centrifugation at 3000 rev/min for 20 minutes, and the samples were stored at +4° C.
The plasma concentrations of total cholesterol were measured by enzyme assays (bioMérieux-Lyon-France) following the supplier's recommendations.
The low-density lipoproteins (VLDL and LDL) were precipitated with phosphotungstate. The precipitate was removed by centrifugation. The HDL-cholesterol present in the supernatant was quantified by enzyme assays (bioMérieux-Lyon-France) following the supplier's recommendations.
The various lipid fractions (VLDL, LDL, HDL) of the plasma were separated by gel filtration chromatography. The concentrations of cholesterol were then measured in each fraction by enzyme assays (bioMérieux-Lyon-France) following the supplier's recommendations.

[2] = target: T1, hPPARalpha (Homo sapiens, UniProt Q07869); assay: PPAR activation: Gal4-hPPARα chimera luciferase transactivation in COS-7 cells, Method 2; assay type: cell-based; conditions: COS-7, 24 h
T1 construct: expressed in transfected cells; host or cells: COS-7 (monkey kidney fibroblasts)
T1 sequence (Q07869 239-466 limits assumed): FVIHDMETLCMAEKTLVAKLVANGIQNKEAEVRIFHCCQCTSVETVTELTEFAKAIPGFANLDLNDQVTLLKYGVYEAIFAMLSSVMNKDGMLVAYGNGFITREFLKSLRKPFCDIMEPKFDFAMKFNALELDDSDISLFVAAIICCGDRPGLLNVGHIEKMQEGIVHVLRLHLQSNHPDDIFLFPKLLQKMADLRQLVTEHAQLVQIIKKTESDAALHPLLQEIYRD
How it was run: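 COS-7 cells were transfected with Gal4-PPAR LBD chimera plus Gal4(RE)_TkpGL3 luciferase reporter (1/10) and seeded serum-free for 4 h. Compounds at 10^−5 to 100 μm were applied for 24 h at 37° C in 1% lipid-free synthetic serum. Luciferase was read after lysis, and EC50 derived.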

[3] = target: T2, hPPARgamma (Homo sapiens, UniProt P37231); assay: PPAR activation: Gal4-hPPARγ chimera luciferase transactivation in COS-7 cells, Method 2; assay type: cell-based; conditions: COS-7, 24 h, Method 2
T2 construct: expressed in transfected cells; host or cells: COS-7 (monkey kidney fibroblasts)
T2 sequence (P37231 238-503 limits assumed): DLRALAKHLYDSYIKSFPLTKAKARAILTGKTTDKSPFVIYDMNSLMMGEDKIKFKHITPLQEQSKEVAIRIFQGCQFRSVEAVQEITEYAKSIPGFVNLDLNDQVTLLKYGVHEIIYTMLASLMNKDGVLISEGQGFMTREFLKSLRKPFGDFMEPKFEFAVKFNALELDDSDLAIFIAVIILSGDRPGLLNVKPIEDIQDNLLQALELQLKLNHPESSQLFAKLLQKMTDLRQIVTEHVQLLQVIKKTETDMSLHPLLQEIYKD
How it was run: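 Transactivation by a Gal4 DNA-binding domain–hPPARγ ligand-binding domain chimera with a Gal4(RE)-luciferase reporter, transfected into COS-7 cells (plasmid ratio 1/10).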

| EC50 ([2]; 1% Ultroser) [µM] | Emax ([2]; maximum percentage response relative to the reference phenofibric acid, read-out: hPPARalpha % max) [%] | Emax ([3]; maximum percentage response relative to the reference rosiglitazone, read-out: hPPARgamma % max) [%] | EC50 ([3]; 1% Ultroser, read-out: hPPARgamma EC50) [µM] | Structure (SMILES) | lipid profile [1] | plasma HDL-cholesterol levels [1] | plasma total cholesterol levels [1] | plasma HDL-cholesterol level (distribution of cholesterol in the plasma lipoprotein fractions) [1] |
| --- | --- | --- | --- | --- | --- | --- | --- | --- |
| – | – | – | – | CC(C)(Oc1ccc(CCC(O)c2ccc(-c3ccc(C(F)(F)F)cc3)s2)c(Cl)c1Cl)C(=O)O (stereo not drawn) [Compound 4, 2-(2,3-dichloro-4-(3-hydroxy-3-(5-(4-(trifluoromethyl)phenyl)thien-2-yl)propyl)phenoxy)-2-methylpropanoic acid] | improve | significantly increased | significantly increased | increased |
| 5.46 | 20 | 40 | 1.7 | CC(C)(Oc1ccc(CCC(OCc2ccccc2)c2ccc(-c3ccc(C(F)(F)F)cc3)s2)c(Cl)c1Cl)C(=O)O (stereo not drawn) [Compound 7, 2-(4-(3-(benzyloxy)-3-(5-(4-(trifluoromethyl)phenyl)thien-2-yl)propyl)-2,3-dichlorophenoxy)-2-methylpropanoic acid] | improve | nonsignificant increase | significantly increased | increased |

Reference: patent US8088819B2, “Derivatives of substituted 3-phenyl-1-(phenylthienyl)propan-1-ones and of 3-phenyl-1-(phenylfuranyl) propan-1-ones, preparation and use” (priority 2006, dated 2012)
